The text below walks through data of patent US7291341B2, “Stresscopins and their uses” (The Board of Trustees of the Leland Stanford Junior …, priority 2000, dated 2007).

Assay [1] deals with fasting mice. As to the kind of experiment: Food intake and body weight in food-restricted mice. The format is in vivo. As to conditions: for cumulative food intake: i.p., fasting mice, 2, 4 and 8 h after treatment, FIG. 4d; for Average body weight change/mouse / Average food intake/mouse: fasted animals, 2 h after treatment, N = 5. As to the method:
(§1) FIG. 4. […] ACTH contents in culture media and serum were determined using a radioimmunoassay. For in vivo studies, male rats were injected i.p. with test peptides (2 nmoles/kg B.W.) and sacrificed 30 mm later. Data are mean SEM (N=4). FIG. 4c. Anti-edema response regulated by stresscopins. Stresscopin 1 (20 nmoles/kg), stresscopin 2 (100 nmoles/kg), and related hormones (20 nmoles/kg) suppress heat-induced paw edema formation in anaesthetized rats (N=6). FIG. 4d. Cumulative food intake in mice treated with stresscopin 1 (left panel, N=6) and stresscopin 2 (right panel, N=4) peptides and other hormones at 2, 4, and 8 h after treatment. FIG. 4e. Reduction of gastric emptying by stresscopin 1 (blank bars, 8 nmoles/kg; hatched bars, 80 nmoles/kg), stresscopin 2 (blank bars, 80 nmoles/kg; hatched bars, 200 nmoles/kg), and related hormones (blank bars, 8 nmoles/kg; hatched bars, 80 nmoles/kg) at 2 h after hormone treatment (N=6). The rates of gastric emptying were calculated by the formula (wet weight of stomach at 2 h after treatment/wet weight of stomach in fed animals sacrificed at 0 h). SCP1 is stresscopin 1; SCP2 is stresscopin 2; UCN is urocortin; SCP1 (11-43) is truncated stresscopin 1 with the first 10 amino acids deleted.
Food intake and body weight in food-restricted mice. Six week-old male mice (20-25 g b.w.) of the inbreed Balb/C strain were housed individually in a regulated environment with 12L/12D light cycle. Before feeding tests, mice were deprived of food for 16 h with free access to water and injected with testing reagents i.p. at 10 AM the following day. Food intake was measured by placing preweighed pellets in the cage and weighing the uneaten pellets at 2, 4 and 8 h after injection. Body weight was also monitored at 0, 2, 4, and 8 h.

For assay [2], the system named is gastric emptying in food-restricted mice. Put plainly: Gastric emptying in food-restricted mice. Format: in vivo. As to conditions: i.p., 2 h after hormone treatment, FIG. 4e. The protocol:
as §1
Effects on gastric emptying in food-restricted mice. To study the effects on gastric emptying, mice were deprived of food for 16 h with free access to water. The fasted mice were then given free access to preweighed pellets for 90 min. and were injected i.p. with different hormones or saline. The mice were deprived of food again after i.p. injection and sacrificed by cervical dislocation at 2 h. after injection. The stomach was excised at point of the pylorus and cardia before determination of its wet weight. Gastric emptying was calculated by comparison with stomach weight of control mice sacrificed at 0 h. following injection. See, Asakawa, A. et al. (1999) Gastroenterology 116:1287-1292.

In assay [3] the test system is ACTH release in intact male rats. As to the kind of experiment: ACTH secretion in vivo. As to conditions: i.p. 2 nmoles/kg, 30 min, FIG. 4b. Also noted: species or system rat. As to the method:
as §1
(§2) In Vivo and in Vitro assay of pituitary ACTH releasing activity. Anterior pituitaries were obtained from 6-week-old male Sprague-Dawley rats. […]

The test system of assay [4] is heat-induced paw edema in anaesthetized rats. Put plainly: Heat-induced paw edema formation in anaesthetized rats. The format is in vivo, rat. Conditions: i.p., FIG. 4c. As to the method: as §1
Effects on heat-induced paw edema formation in anaesthetized rats. The anti-inflammatory effect of stresscopin and related peptides were assayed using an established model (Turnbull et al. (1996) Euro. J. Pharmacol. 303:213-216). Briefly, 5-week-old male Sprague-Dawley rats were injected with […] of the testing peptide and anaesthetized with ketamine (100 mg/Kg). Thirty min. later, paw edema was induced following a one minute exposure to hot water at 58° C. The animals were sacrificed 30 min later. Both paws were removed at the ankle joint and weighed. The degree of edema was estimated as the differences in weight gain between the heated and unheated paw divided by the weight of the unheated paw.

The subject of assay [5] is cultured rat anterior pituitary cells. As to the kind of experiment: ACTH release by cultured anterior pituitary cells in vitro. The format is cell-based. Conditions: hormones 1 nM, 2 h at 37° C., FIG. 4a. The protocol: as §1, §2
The test system of assay [6] is recombinant CRHR2. Put plainly: cAMP production by 293T cells transfected with recombinant CRHR2 (two isoforms). Conditions: for cAMP production mediated by recombinant CRHR2: 293T cells transiently transfected, two isoforms of CRHR2 (FIGS. 3c-3d). Format: cell-based. The protocol: (§3) FIG. 3. […] Hormonal stimulation of cAMP production by FIG. 3a. CRHR2-containing rat cardiac A7r5 cells, FIG. 3b. CRHR1-containing human retinoblastoma Y79 cells, FIG. 3c. recombinant CRHR2, FIG. 3d. recombinant CRHR2 and, FIG. 3e. recombinant CRHR1. Cells incubated with the test peptide or vehicle were harvested at 16 h after treatment and heated to 95° C. for 5 mm to inactivate phosphodiesterase activity before cAMP measurement. FIG. 3f. […] Data are the mean SEM (N=4). SCP1-0.1, stresscopin 1 (0.1 nM); SCP1, stresscopin 1 (1 nM); SCP1(2-43), truncated stresscopin 1 with the first amino acid deleted; SCP1 (3-43), truncated stresscopin 1 with 2-amino-acid deletion; SCP1 (4-43), truncated stresscopin 1 with 3-amino-acid deletion; SCP1 (5-43), truncated stresscopin 1 with 4-amino-acid deletion; SCP1 (6-43), truncated stresscopin 1 with 5-amino-acid deletion; SCP1-NA-0.1, full-length stresscopin 1 devoid of amidation at the C-terminus (0.1 nM); SCP1-NA, full-length stresscopin 1 devoid of amidation at the C-terminus (1 nM); UCN, urocortin. FIGS. 3g and 3h. […] Data are mean SEM (N=3).
Sequence of recombinant CRHR2 (Q13324 35-411 limits assumed): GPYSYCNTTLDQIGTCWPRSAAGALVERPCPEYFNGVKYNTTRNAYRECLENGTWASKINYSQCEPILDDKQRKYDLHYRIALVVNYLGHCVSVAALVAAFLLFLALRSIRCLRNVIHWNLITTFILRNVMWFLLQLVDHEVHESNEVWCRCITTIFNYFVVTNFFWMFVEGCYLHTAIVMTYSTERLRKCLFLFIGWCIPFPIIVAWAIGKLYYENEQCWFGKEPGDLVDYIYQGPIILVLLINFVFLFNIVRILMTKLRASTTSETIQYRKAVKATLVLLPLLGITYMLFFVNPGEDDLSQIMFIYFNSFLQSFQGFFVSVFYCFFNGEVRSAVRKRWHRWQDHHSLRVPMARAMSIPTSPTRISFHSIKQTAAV
(§4) The receptor cDNA fragments were subcloned into the pcDNA3.1/Zeo vector with a prolactin signal peptide for secretion and triple FLAG/M1 epitope cassette upstream of the multiple cloning site. […] For the estimation of adenylate cyclase activation by stresscopin and related hormones, transfected cells were seeded at a concentration of 100,000 cell/well in 48 well culture plates in DMEM/F12 medium containing 0.1% BSA and 2.5mM IBMX for 16 h. Contents of cAMP in whole cell lysate were determined using a cAMP radioimmunoassay.
Background: Changes in cAMP serve as a functional read-out for many G protein-coupled receptors.

Assay [7] deals with T1, CRHR2-containing rat cardiac A7r5 cells (Rattus norvegicus, UniProt P47866).
T1 construct: cells constitutively expressing CRH receptors; host or cells: A7r5 (rat)
T1 sequence (P47866 1-431 isoform P47866-2): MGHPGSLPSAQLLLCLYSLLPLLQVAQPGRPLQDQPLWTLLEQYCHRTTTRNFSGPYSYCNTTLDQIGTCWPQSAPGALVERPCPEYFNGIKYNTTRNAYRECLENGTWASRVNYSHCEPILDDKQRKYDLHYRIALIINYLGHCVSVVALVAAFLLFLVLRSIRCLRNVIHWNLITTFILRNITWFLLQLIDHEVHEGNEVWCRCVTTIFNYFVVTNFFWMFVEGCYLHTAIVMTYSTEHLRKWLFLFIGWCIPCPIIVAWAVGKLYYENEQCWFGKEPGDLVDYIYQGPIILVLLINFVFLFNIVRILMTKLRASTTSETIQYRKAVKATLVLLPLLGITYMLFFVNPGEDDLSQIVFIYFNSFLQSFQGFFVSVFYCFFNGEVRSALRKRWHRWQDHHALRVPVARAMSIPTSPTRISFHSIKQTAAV
Put plainly: cAMP production in CRHR2-containing rat cardiac A7r5 cells. Format: cell-based. Conditions: harvested 16 h after treatment (FIG. 3a). As to the method: as §3, §4

In assay [8] the target is T2, CRHR1-containing human retinoblastoma Y79 cells (Homo sapiens, UniProt P34998).
T2 construct: cells constitutively expressing CRH receptors; host or cells: Y79 (human retinoblastoma)
T2 sequence (P34998 24-415): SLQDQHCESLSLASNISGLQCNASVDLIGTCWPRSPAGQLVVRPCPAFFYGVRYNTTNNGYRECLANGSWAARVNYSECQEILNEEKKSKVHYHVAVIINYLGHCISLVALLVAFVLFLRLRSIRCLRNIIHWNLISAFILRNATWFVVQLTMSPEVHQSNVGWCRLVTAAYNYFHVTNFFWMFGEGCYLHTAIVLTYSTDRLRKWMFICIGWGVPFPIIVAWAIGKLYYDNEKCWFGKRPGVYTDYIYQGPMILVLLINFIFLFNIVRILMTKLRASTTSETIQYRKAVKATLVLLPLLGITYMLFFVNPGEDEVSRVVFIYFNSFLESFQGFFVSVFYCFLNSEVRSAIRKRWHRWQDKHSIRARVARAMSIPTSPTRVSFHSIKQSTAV
Put plainly: cAMP production in CRHR1-containing human retinoblastoma Y79 cells. Conditions: harvested 16 h after treatment (FIG. 3b). Format: cell-based.
Procedure: (§5) CRHR1-containing human retinoblastoma Y79 cells, FIG. 3c. recombinant CRHR2, FIG. 3d. recombinant CRHR2 and, FIG. 3e. recombinant CRHR1. Cells incubated with the test peptide or vehicle were harvested at 16 h after treatment and heated to 95° C. for 5 mm to inactivate phosphodiesterase activity before cAMP measurement. […] Data are the mean SEM (N=4). SCP1-0.1, stresscopin 1 (0.1 nM); SCP1, stresscopin 1 (1 nM); SCP1(2-43), truncated stresscopin 1 with the first amino acid deleted; SCP1 (3-43), truncated stresscopin 1 with 2-amino-acid deletion; SCP1 (4-43), truncated stresscopin 1 with 3-amino-acid deletion; SCP1 (5-43), truncated stresscopin 1 with 4-amino-acid deletion; SCP1 (6-43), truncated stresscopin 1 with 5-amino-acid deletion; SCP1-NA-0.1, full-length stresscopin 1 devoid of amidation at the C-terminus (0.1 nM); SCP1-NA, full-length stresscopin 1 devoid of amidation at the C-terminus (1 nM); UCN, urocortin. […] Data are mean SEM (N=3).

Assay [9] relates to CRH R2. Put plainly: Receptor binding assay, displacement of 125I-urocortin. Conditions: 293T cells transfected with CRHR2 isoforms (FIGS. 3g, 3h). As to the method:
as §3
Receptor Binding assay. […] After 60 min incubation at 37° C., the cell-associated ligand was estimated following centrifugation and repeated washing. Radioactivity of samples was determined in a GENESYS-counter (Laboratory Technologies, Inc., Maple Park, Ill.).

Assay [10] has as its target T3, recombinant CRHR1 (Homo sapiens, UniProt P34998).
T3 construct: prolactin signal peptide (N); expressed in transfected cells; host or cells: human 293T cells, pcDNA3.1/Zeo vector
T3 sequence (P34998 24-415): T2 sequence (P34998 24-415)
As to the kind of experiment: cAMP production by 293T cells transfected with recombinant CRHR1. The format is cell-based. Conditions: 293T cells transiently transfected (FIG. 3e).
Procedure: as §5

Ends that are not written are not given here. A value given as a limit tells only on which side of the number the result lay.

Turning to “CRH: corticotropin releasing hormone, 41-amino acid peptide; purchased from Sigma Biochemicals [reference compound]”, the cumulative food intake result in [1] was “dose-dependently decreased food intake”. Also, the gastric emptying activity entry in [2] was “suppressed gastric emptying activity”. Moreover, the “ACTH release in vivo” value in [3] was “stimulated the release of ACTH”. Also, the heat-induced edema formation result in [4] (20 nmoles/kg) was “suppressed heat-induced edema formation”. In addition, in assay [5], the “ACTH release in vitro” value was “stimulated the release of ACTH”. Besides, the “cAMP production mediated by recombinant CRHR2” value in assay [6] is on record as “stimulated cAMP production”. Besides, in assay [7], the cAMP production entry was “stimulated cAMP production”.
Regarding “SCP1-NA: full-length stresscopin 1 devoid of amidation at the C-terminus (HPGSRIVLSLDVILGLLQILLEQARARAAREQATTNARILARV-OH)”, the “reduction in ability to stimulate cAMP production” value in assay [6] (compared to amidated stresscopin 1) was > 50 fold.
Turning to “stresscopin 1: mature 43 amino acid peptide, SEQ ID NO:3, derived from a 112 amino acid precursor; selective CRH-R2 ligand (HPGSRIVLSLDVILGLLQILLEQARARAAREQATTNARILARV; listed as Homo sapiens)”, in assay [1] (20 nM), the “Average body weight change/mouse” value is 0.31 ± 0.14 grams and the Average food intake/mouse is given as 0.185 grams. The cumulative food intake result in assay [1] is “dose-dependently decreased food intake”. For the same substance, the gastric emptying activity entry in [2] was “suppressed gastric emptying activity”. Further, the heat-induced edema formation entry in assay [4] (20 nmoles/kg) is recorded as “suppressed heat-induced edema formation”. Further, in assay [8], the cAMP production entry is recorded as “ineffective”. In [9], the “ability to bind CRHR2 (displacement of labeled urocortin)” value is on record as “bind”. In addition, the “cAMP production mediated by recombinant CRHR2” value in assay [6] is “potent agonists”. For the same substance, the “higher potency as compared to stresscopin 2 and the pufferfish peptide” value in assay [6] (activation of type-2 CRH receptors, cAMP) was > 10 fold. Also, the cAMP production result in [7] is “stimulated cAMP production”.
Turning to “stresscopin 2: mature peptide of 40 amino acids, SEQ ID NO:6, derived from a 161 amino acid precursor protein (TKFTLSLDVPTNIMNLLFNIAKAKNLRAQAAANAHLMAQI; listed as Homo sapiens)”, in assay [1] (2 nM), the “Average body weight change/mouse” value is given as −0.19 ± 0.24 grams and the Average food intake/mouse is given as 0.176 grams. In addition, in [1] (20 nM), the “Average body weight change/mouse” value was 0.11 ± 0.1 grams and the Average food intake/mouse was found to be 0.152 grams. Further, the cumulative food intake entry in assay [1] is recorded as “dose-dependently decreased food intake”. In addition, in assay [2], the gastric emptying activity result is “suppressed gastric emptying activity”. Besides, the heat-induced edema formation result in assay [4] (100 nmoles/kg) was “suppressed heat-induced edema formation”. Besides, in assay [9], the “ability to bind CRHR2 (displacement of labeled urocortin)” value is “bind”. Besides, in assay [6], the “cAMP production mediated by recombinant CRHR2” value is listed as “potent agonists”.
For “urocortin: 40 amino acid peptide, ligand for the CRH receptors; purchased from Sigma Biochemicals (DNPSLSIDLTFHLLRTLLELARTQSQRERAEQNRIIFDSV; ends and bridges not checked; UniProt P55089 83-122, looked up) [reference compound]”, the cumulative food intake entry in assay [1] is listed as “dose-dependently decreased food intake”. Further, the gastric emptying activity result in assay [2] is reported as “suppressed gastric emptying activity”. Moreover, the “ACTH release in vivo” value in [3] is “stimulated the release of ACTH”. In assay [4] (20 nmoles/kg), the heat-induced edema formation result was “suppressed heat-induced edema formation”. The “ACTH release in vitro” value in assay [5] is reported as “stimulated the release of ACTH”. Besides, the “cAMP production mediated by recombinant CRHR1” value in assay [10] is “stimulated cAMP production”. Further, the cAMP production entry in assay [8] and in [7] was “stimulated cAMP production” in each case. Moreover, the “cAMP production mediated by recombinant CRHR2” value in [6] was “stimulated cAMP production”.
